# In patent US12448399B2, “Cereblon-based KRAS degrading PROTACs and uses related thereto” (Arvinas Operations, Inc., priority 2023, dated 2025):
# Molecular target: T1, KRas-G12D (Homo sapiens, UniProt P01116, G12D)
# T1 construct: insert the HiBiT tag onto the N-terminus of one or more of the endogenous KRas alleles; host or cells: AsPC-1 HiBiT-KRasG12D knock-in clone (one tagged allele, two untagged KRasG12D alleles)
# Assay: HiBiT Degradation Assay (G12D), AsPC-1 HiBiT-KRasG12D cells, 24 hr
# Format: cell-based
# Settings: ASPC1, AsPC-1 cells, maximum degradation observed
# Method: AsPC-1 (CRL-1682) cells were purchased from ATCC and are homozygous for the G12D mutation in KRas. AsPC-1 cells were cultured in GIBCO RPMI-1640 (ThermoFisher Scientific, catalog #61870-036, with Glutamax, no HEPES, no Na Pyruvate) supplemented with 10% FBS (ThermoFisher Scientific, catalog #2060357) and 1× Penicillin-Streptomycin (ThermoFisher Scientific, catalog #15140122, 10000 U/ml, 100×). For degradation assays, 384 well plates were used. Alamar blue was purchased from ThermoFisher Scientific (A50101) and used according to manufacturer instructions. The Nano-Glo® HiBiT Lytic Detection System and Nano-Glo® HiBiT Blotting System were purchased from Promega (#N3050 and #N2410) and used according to manufacturer instructions.
# To create the AsPC-1 HiBiT-KRasG12D cell line, CRISPR-Cas9 was used to insert the HiBiT tag onto the N-terminus of one or more of the endogenous KRas alleles. See Schwinn, M. K. et al. (2018) CRISPR-mediated tagging of endogenous proteins with a luminescent peptide, ACS Chem. Biol. 13(2), 467-474. After knock-in of the tag, individual clones were isolated by single cell dilution and screened for HiBiT insertion by PCR. A clone was identified that contained the desired HiBiT-KRasG12D sequence at one allele while the remaining two KRasG12D alleles were untagged. This clone was used in further studies.
# AsPC-1 HiBiT-KRasG12D cells were plated at 9000 or 15,000 cells/well in a 384 well plate (Corning #3770). Compounds of the present disclosure and positive controls were diluted in the appropriate cell media and applied to the plated cells resulting in a final concentration titration of 10 μM to […] in 0.5% DMSO. Gambogic acid was used as a positive control for cytotoxicity and titrated from 10 μM to 78 nM. All assays were performed in triplicate. Cells were treated with compounds for 24 hr at 37° C. in an incubator containing 5% CO2. Following treatment, alamar blue was used to determine if any compounds led to a loss in cell viability after 24 hr. The 10× alamar blue reagent was added to a final concentration of 1× as recommended by the manufacturer and cells were returned to the incubator for 4 hr. Plates were then allowed to equilibrate to RT and fluorescence was measured using a Perkin-Elmer EnVision. After completion of the fluorescence read, the liquid from each well was removed and the cells were washed with PBS. The Nano-Glo® HiBiT detection reagent was prepared according to the manufacturer's instructions and added to each well after the PBS wash was removed. Following incubation at room temperature for 45 min, the luminescence was read using the ultra-sensitive luminescence aperture on the Envision instrument.
# Fluorescence values from the alamar blue treatment were normalized to the DMSO-only control for each compound titration. HiBiT luminescence was normalized to the DMSO-only control and the fractional HiBiT signal was plotted versus the log of the PROTAC concentration and fit to a 4-parameter dose-response model to obtain the concentration of the compound that leads to half maximal degradation (DC50) as well as the maximum degradation observed (Dmax, conventionally expressed as a percentage of control).
# T1 sequence (P01116 1-188 isoform P01116-2 G12D): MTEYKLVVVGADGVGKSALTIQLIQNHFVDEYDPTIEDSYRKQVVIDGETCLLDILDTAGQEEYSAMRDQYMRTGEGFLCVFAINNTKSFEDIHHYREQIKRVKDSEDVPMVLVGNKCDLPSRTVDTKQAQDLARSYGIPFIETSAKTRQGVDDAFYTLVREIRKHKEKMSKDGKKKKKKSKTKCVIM
row,Structure (SMILES),Dmax
1,CCc1cccc2cc(O)cc(-c3ncc4c(N5CC6CCC(C5)N6)nc(OCCN5CCC(CN6CC7(CCN(c8ccc9c(c8)CN(C8CCC(=O)NC8=O)C9=O)CC7)C6)CC5)nc4c3F)c12 (centres unmarked) [Compound 2],> 70%
2,CCc1cccc2cc(O)cc(-c3ncc4c(N5CC6CCC(C5)N6)nc(OCCN5CCN(CC6CCN(c7ccc(N8CCC(=O)NC8=O)c(F)c7)CC6)CC5)nc4c3F)c12 [Compound 14],≤ 25%
3,CCc1cccc2cc(O)cc(-c3ncc4c(N5CC6CCC(C5)N6)nc(OCCN5CCN(CC6CCN(c7ccc(F)c(C(=O)NC8CCC(=O)NC8=O)c7)CC6)CC5)nc4c3F)c12 (centres unmarked) [Compound 17],≤ 25%
4,CCc1cccc2cc(O)cc(-c3ncc4c(N5CC6CCC(C5)N6)nc(OCCN5CCC(CN6CCC(Oc7cccc8c7C(=O)N(C7CCC(=O)NC7=O)C8=O)CC6)CC5)nc4c3F)c12 (centres unmarked) [Compound 18],≤ 25%

# Same assay, conditions: AsPC-1 cells
row,Structure (SMILES),DC50
1,CCc1cccc2cc(O)cc(-c3ncc4c(N5CC6CCC(C5)N6)nc(OCCN5CCC(CN6CC7(C6)CN(c6ccc8c(c6)C(=O)N(C6CCC(=O)NC6=O)C8=O)C7)CC5)nc4c3F)c12 (centres unmarked) [Compound 1],100 to 5250 nM
2,CCc1cccc2cc(O)cc(-c3ncc4c(N5CC6CCC(C5)N6)nc(OCCN5CCC(CN6CC7(CCN(c8ccc9c(c8)CN(C8CCC(=O)NC8=O)C9=O)CC7)C6)CC5)nc4c3F)c12 (centres unmarked) [Compound 2],< 5100 nM
3,CCc1cccc2cc(O)cc(-c3ncc4c(N5CC6CCC(C5)N6)nc(OCCN5CCC(CN6CCC7(CC6)CN(c6cccc8c6CN(C6CCC(=O)NC6=O)C8=O)C7)CC5)nc4c3F)c12 (centres unmarked) [Compound 3],250 to 1000 nM
4,CCc1cccc2cc(O)cc(-c3ncc4c(N5CC6CCC(C5)N6)nc(OCCN5CCN(CCN(C)[C@H]6C[C@H](Oc7ccc8c(c7)C(=O)N(C7CCC(=O)NC7=O)C8=O)C6)CC5)nc4c3F)c12 (some centres unmarked) [Compound 4],> 1000 nM
5,CCc1cccc2cc(O)cc(-c3ncc4c(N5CC6CCC(C5)N6)nc(OCCN5CCN(c6cc(N7CCN(c8ccc9c(c8)C(=O)N(C8CCC(=O)NC8=O)C9=O)CC7)ncn6)CC5)nc4c3F)c12 (centres unmarked) [Compound 5],> 1000 nM
6,CCc1cccc2cc(O)cc(-c3ncc4c(N5CC6CCC(C5)N6)nc(OCCN5CCN(CC6CCN(C(=O)c7ccc(OC)c(N8CCC(=O)NC8=O)c7)CC6)CC5)nc4c3F)c12 [Compound 6],> 1000 nM
7,CCc1cccc2cc(O)cc(-c3ncc4c(N5CC6CCC(C5)N6)nc(OCCN5CCN(c6cc(OC)c7c(c6)C(=O)N(C6CCC(=O)NC6=O)C7=O)CC5)nc4c3F)c12 (centres unmarked) [Compound 7],> 1000 nM
8,CCc1cccc2cc(O)cc(-c3ncc4c(N5CC6CCC(C5)N6)nc(OCCN5CCC(CN6CCC(Oc7ccc8c(c7)C(=O)N(C7CCC(=O)NC7=O)C8=O)CC6)CC5)nc4c3F)c12 (centres unmarked) [Compound 8],250 to 1000 nM
9,CCc1cccc2cc(O)cc(-c3ncc4c(N5CC6CCC(C5)N6)nc(OCCN5CCC(CN6CCN(c7cccc8c7CN(C7CCC(=O)NC7=O)C8=O)CC6)CC5)nc4c3F)c12 (centres unmarked) [Compound 9],250 to 1000 nM
10,CCc1cccc2cc(O)cc(-c3ncc4c(N5CC6CCC(C5)N6)nc(OCCN5CCC(CCCN6CCN(c7ccc8c(c7)C(=O)N(C7CCC(=O)NC7=O)C8=O)CC6)CC5)nc4c3F)c12 (centres unmarked) [Compound 10],250 to 1000 nM
11,CCc1cccc2cc(O)cc(-c3ncc4c(N5CC6CCC(C5)N6)nc(OCCN5CCC(CN(C)[C@H]6C[C@H](Oc7ccc8c(c7)C(=O)N(C7CCC(=O)NC7=O)C8=O)C6)CC5)nc4c3F)c12 (some centres unmarked) [Compound 11],250 to 1000 nM
12,CCc1cccc2cc(O)cc(-c3ncc4c(N5CC6CCC(C5)N6)nc(OCCN5CCC(CCC6CCN(c7ccc8c(c7)C(=O)N(C7CCC(=O)NC7=O)C8=O)CC6)CC5)nc4c3F)c12 (centres unmarked) [Compound 12],> 1000 nM
13,CCc1cccc2cc(O)cc(-c3ncc4c(N5CC6CCC(C5)N6)nc(OCCN5CCC(C(C)(C)N6CCN(c7ccc8c(c7)C(=O)N(C7CCC(=O)NC7=O)C8=O)CC6)CC5)nc4c3F)c12 (centres unmarked) [Compound 13],250 to 1000 nM
14,CCc1cccc2cc(O)cc(-c3ncc4c(N5CC6CCC(C5)N6)nc(OCCN5CCN(CC6CCN(c7ccc(N8CCC(=O)NC8=O)c(F)c7)CC6)CC5)nc4c3F)c12 [Compound 14],250 to 1000 nM
15,CCc1cccc2cc(O)cc(-c3ncc4c(N5CC6CCC(C5)N6)nc(OCCN5CCN(CC6CCN(c7ccc(OC)c(C(=O)NC8CCC(=O)NC8=O)c7)CC6)CC5)nc4c3F)c12 (centres unmarked) [Compound 15],250 to 1000 nM
16,CCc1cccc2cc(O)cc(-c3ncc4c(N5CC6CCC(C5)N6)nc(OCCN5CCC(Cn6cccc(CN7CCC(=O)NC7=O)c6=O)CC5)nc4c3F)c12 [Compound 16],> 1000 nM
17,CCc1cccc2cc(O)cc(-c3ncc4c(N5CC6CCC(C5)N6)nc(OCCN5CCN(CC6CCN(c7ccc(F)c(C(=O)NC8CCC(=O)NC8=O)c7)CC6)CC5)nc4c3F)c12 (centres unmarked) [Compound 17],250 to 1000 nM

row,Structure (SMILES),DC50
1,CCc1cccc2cc(O)cc(-c3ncc4c(N5CC6CCC(C5)N6)nc(OCCN5CCC(CN6CCC(Oc7cccc8c7C(=O)N(C7CCC(=O)NC7=O)C8=O)CC6)CC5)nc4c3F)c12 (centres unmarked) [Compound 18],> 1000 nM
2,CCc1cccc2cc(O)cc(-c3ncc4c(N5CC6CCC(C5)N6)nc(OCCN5CCC6(CC5)CCN(c5ccc7c(c5)C(=O)N(C5CCC(=O)NC5=O)C7=O)CC6)nc4c3F)c12 (centres unmarked) [Compound 19],250 to 1000 nM
3,CCc1cccc2cc(O)cc(-c3ncc4c(N5CC6CCC(C5)N6)nc(OCCN5CCC(CN6CCN(CC7CCN(c8ccc9c(c8)C(=O)C(C8CCC(=O)NC8=O)C9=O)CC7)CC6)CC5)nc4c3F)c12 (centres unmarked) [Compound 20],100 to 5250 nM
4,CCc1cccc2cc(O)cc(-c3ncc4c(N5CC6CCC(C5)N6)nc(OCCN5CCOC(CN6CCN(CC7CCN(c8ccc9c(c8)C(=O)N(C8CCC(=O)NC8=O)C9=O)CC7)CC6)C5)nc4c3F)c12 (centres unmarked) [Compound 21],250 to 1000 nM
5,CCc1cccc2cc(O)cc(-c3ncc4c(N5CC6CCC(C5)N6)nc(OCCN5CCC(CN6CCC7(CC6)CCN(c6ccc8c(c6)C(=O)N(C6CCC(=O)NC6=O)C8=O)CC7)CC5)nc4c3F)c12 (centres unmarked) [Compound 22],100 to 5250 nM
6,CCc1cccc2cc(O)cc(-c3ncc4c(N5CC6CCC(C5)N6)nc(OCCN5CCC(O[C@H]6CC[C@H](OC7CCN(c8cccc9c8CN(C8CCC(=O)NC8=O)C9=O)CC7)CC6)CC5)nc4c3F)c12 (some centres unmarked) [Compound 23],250 to 1000 nM
7,CCc1cccc2cc(O)cc(-c3ncc4c(N5CC6CCC(C5)N6)nc(OCCN5CCC(O[C@H]6C[C@H](OC7CCN(c8cccc9c8CN(C8CCC(=O)NC8=O)C9=O)CC7)C6)CC5)nc4c3F)c12 (some centres unmarked) [Compound 24],100 to 5250 nM
8,CCc1cccc2cc(O)cc(-c3ncc4c(N5CC6CCC(C5)N6)nc(OCCN5CCC6(CC5)CCN(CC5CCN(c7ccc8c(c7)C(=O)N(C7CCC(=O)NC7=O)C8=O)CC5)CC6)nc4c3F)c12 (centres unmarked) [Compound 25],< 5100 nM
9,CCc1cccc2cc(O)cc(-c3ncc4c(N5CC6CCC(C5)N6)nc(OCCN5CCC(COCC6CCN(c7ccc8c(c7)C(=O)N(C7CCC(=O)NC7=O)C8=O)CC6)CC5)nc4c3F)c12 (centres unmarked) [Compound 26],250 to 1000 nM
10,CCc1cccc2cc(O)cc(-c3ncc4c(N5CC6CCC(C5)N6)nc(OCCN5CCC(C6CCN(c7ccc8c(c7)C(=O)N(C7CCC(=O)NC7=O)C8=O)CC6)CC5)nc4c3F)c12 (centres unmarked) [Compound 27],250 to 1000 nM
11,"CCc1cccc2cc(O)cc(-c3ncc4c(N5CC6CCC(C5)N6)nc(OCCN5CCC(CC6CCN(c7cccc8c7n(C)c(=O)n8C7CCC(=O)NC7=O)CC6)CC5)nc4c3F)c12 (centres unmarked) [Compound 28, 3-[4-[4-[[1-[2-[4-(3,8-diazabicyclo[3.2.1]octan-3-yl)-7-(8-ethyl-3-hydroxy-1-naphthyl)-8-fluoro-pyrido[4,3-d]pyrimidin-2-yl]oxyethyl]-4-piperidyl]methyl]-1-piperidyl]-3-methyl-2-oxo-benzimidazol-1-yl]piperidine-2,6-dione]",250 to 1000 nM
12,CCc1cccc2cc(O)cc(-c3ncc4c(N5CC6CCC(C5)N6)nc(OCCN5CCC(F)(CC6CCN(c7cccc8c7CN(C7CCC(=O)NC7=O)C8=O)CC6)CC5)nc4c3F)c12 (centres unmarked) [Compound 29],250 to 1000 nM
13,CCc1cccc2cc(O)cc(-c3nc(N4CC5CCC(C4)N5)c4cnc(OCCN5CCC(CC6CCN(c7cccc8c7CN(C7(C)CCC(=O)NC7=O)C8=O)CC6)CC5)nc4c3F)c12 (centres unmarked) [Compound 30],> 1000 nM
14,CCc1cccc2cc(O)cc(-c3ncc4c(N5CC6CCC(C5)N6)nc(OCCN5CCC(CCN6CCN(c7ccc8c(c7)C(=O)N(C7CCC(=O)NC7=O)C8=O)CC6)CC5)nc4c3F)c12 (centres unmarked) [Compound 31],100 to 5250 nM
15,CCc1cccc2cc(O)cc(-c3ncc4c(N5CC6CCC(C5)N6)nc(OCCN5CCC(CN6CCN(c7ccc8c(c7)C(=O)N(C7CCC(=O)NC7=O)C8=O)CC6)CC5)nc4c3F)c12 (centres unmarked) [Compound 32],250 to 1000 nM
16,CCc1cccc2cc(O)cc(-c3ncc4c(N5CC6CCC(C5)N6)nc(OCCN5CCN([C@H]6CC[C@H](Nc7ccc8c(c7)C(=O)N(C7CCC(=O)NC7=O)C8=O)CC6)CC5)nc4c3F)c12 (some centres unmarked) [Compound 33],250 to 1000 nM
17,CCc1cccc2cc(O)cc(-c3ncc4c(N5CC6CCC(C5)N6)nc(OCCN5CCC(c6ccc7c(c6)C(=O)N(C6CCC(=O)NC6=O)C7=O)CC5)nc4c3F)c12 (centres unmarked) [Compound 34],250 to 1000 nM
